From patent US20230324382A1, “ANTIPHOSPHOLIPID ANTIBODIES FOR THE DIAGNOSIS OF LYME DISEASE” (Trustees of Tufts College, priority 2022, published 2023)

Assays:
E. coli = experiment: Incorporation of NBD-PC, other species; assay type: cell-based, Escherichia coli MG1655; conditions: 25 μM NBD-PC, 4 hours
Method: (§1) Cells were grown to a stationary phase (5 days) in BSK and then pelleted (5 minutes at 3220 g), washed once in an equal volume of PBS, and resuspended in an equal volume of dBSK. The cell suspension (1 mL) was added to nitrobenzoxadiazole-labeled (NBD-labeled) phospholipids (Avanti) to 25 μM. At hourly intervals, the cells were pelleted (5 minutes at 18,800 g), washed 3 times in 1 mL PBS, and resuspended in 100 μL PBS. The suspensions were transferred onto clear-bottomed, opaque 96-well plates (Corning), and fluorescence was recorded at excitation 460 nm/emission 540 nm (Ex460/Em540). Staphylococcus aureus 502a and Escherichia coli MG1655 were grown overnight in tryptic soy broth (TSB): tryptone (17.0 g/L), soytone (3.0), glucose (2.5), sodium chloride (5.0), and dipotassium phosphate (2.5). Incorporation of NBD-phospholipids was carried out in TSB, with subsequent washing and measurement as above.
(§2) After fluorescence measurements, 5 μL cell suspensions were spotted onto glass slides and fixed with 5 μL ProLong Gold (Thermo Fisher Scientific) with DAPI. […] For all 3 bacterial species imaged, the laser power was calibrated such that minimal autofluorescence was detected in unlabeled cells prior to imaging of the labeled cells.

S. aureus = experiment: Incorporation of NBD-PC, other species; assay type: cell-based, Staphylococcus aureus 502a; conditions: 25 μM NBD-PC, 4 hours
Method: as §1, §2

B. burgdorferi = experiment: Retention of NBD-PC in the membrane after transfer to rich medium; assay type: cell-based, Borrelia burgdorferi
From the text: FIG. 12 is a graph illustrating that phospholipids are retained in the membrane in the absence of an environmental source. B. burgdorferi was labelled with NBD-PC in lipid-depleted dBSK medium for four hours, washed, and resuspended in rich medium. […] Points are the mean of three biological replicates, with error bars the standard deviation.
This is indicative of nonspecific uptake and is consistent with a model of random diffusion into the membrane. Fluorescence was detectable for up to 4 days after the initial labeling, with a half-life of approximately 1 day (FIG. 12).

## NBD-PC
E. coli
  entry of fluorescent phospholipid into membranes: did not enter the membranes
S. aureus
  entry of fluorescent phospholipid into membranes: did not enter the membranes
B. burgdorferi; day 1
  fluorescence intensity as % of D0: 56%
B. burgdorferi; day 4
  fluorescence intensity as % of D0: ~7%
